Patent publication US20240368203A1, “DEGRADATION OF (EGFR) BY CONJUGATION OF EGFR INHIBITORS WITH E3 LIGASE LIGAND AND METHODS OF USE” (BeiGene, Ltd., priority 2022, published 2024)

What was measured:
EGFR-Del19/T790M/C797S = assay: EGFR degradation HTRF assay in H1975-clone #28 cells; format: cell-based; conditions: H1975-clone #28 (Del19/T790M/C797S) cells, 16 h treatment; for DC50: IC50 (DC50), read-out: DC50(nM) H1975 # 28 DTC; for Dmax (%) H1975 # 28 DTC: maximum percentage of inhibition (degradation)
In short: (§1)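 H1975 clones with endogenous EGFR knocked out, homozygously expressing lentiviral L858R/T790M/C797S (#25) or Del19/T790M/C797S (#28), treated 16 h at 37° C with 8 doses from 10 uM, 5-fold, in 0.2% DMSO. EGFR in lysates measured by HTRF overnight; DC50 from four-parameter fit of % degradation.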

EGFR-L858R/T790M/C797S = biological target: T1, EGFR-L858R/T790M/C797S (Homo sapiens, UniProt P00533, C797S/L858R/T790M); assay: EGFR degradation HTRF assay in H1975-clone #25 cells; format: cell-based; conditions: 16 h treatment; for DC50: H1975-clone #25 (L858R/T790M/C797S) cells, IC50 (DC50), read-out: DC50(nM) H1975 # 25-LTC; for Dmax: NCI-H1975, H1975-clone #25 (L858R/T790M/C797S) cells, maximum percentage of inhibition (degradation), read-out: Dmax (%) H1975 # 25-LTC
T1 construct: expressed in transfected cells; host or cells: H1975-clone #25 (lentiviral over-expression, endogenous EGFR knocked out)
T1 sequence (P00533 25-1210 T790M/C797S/L858R): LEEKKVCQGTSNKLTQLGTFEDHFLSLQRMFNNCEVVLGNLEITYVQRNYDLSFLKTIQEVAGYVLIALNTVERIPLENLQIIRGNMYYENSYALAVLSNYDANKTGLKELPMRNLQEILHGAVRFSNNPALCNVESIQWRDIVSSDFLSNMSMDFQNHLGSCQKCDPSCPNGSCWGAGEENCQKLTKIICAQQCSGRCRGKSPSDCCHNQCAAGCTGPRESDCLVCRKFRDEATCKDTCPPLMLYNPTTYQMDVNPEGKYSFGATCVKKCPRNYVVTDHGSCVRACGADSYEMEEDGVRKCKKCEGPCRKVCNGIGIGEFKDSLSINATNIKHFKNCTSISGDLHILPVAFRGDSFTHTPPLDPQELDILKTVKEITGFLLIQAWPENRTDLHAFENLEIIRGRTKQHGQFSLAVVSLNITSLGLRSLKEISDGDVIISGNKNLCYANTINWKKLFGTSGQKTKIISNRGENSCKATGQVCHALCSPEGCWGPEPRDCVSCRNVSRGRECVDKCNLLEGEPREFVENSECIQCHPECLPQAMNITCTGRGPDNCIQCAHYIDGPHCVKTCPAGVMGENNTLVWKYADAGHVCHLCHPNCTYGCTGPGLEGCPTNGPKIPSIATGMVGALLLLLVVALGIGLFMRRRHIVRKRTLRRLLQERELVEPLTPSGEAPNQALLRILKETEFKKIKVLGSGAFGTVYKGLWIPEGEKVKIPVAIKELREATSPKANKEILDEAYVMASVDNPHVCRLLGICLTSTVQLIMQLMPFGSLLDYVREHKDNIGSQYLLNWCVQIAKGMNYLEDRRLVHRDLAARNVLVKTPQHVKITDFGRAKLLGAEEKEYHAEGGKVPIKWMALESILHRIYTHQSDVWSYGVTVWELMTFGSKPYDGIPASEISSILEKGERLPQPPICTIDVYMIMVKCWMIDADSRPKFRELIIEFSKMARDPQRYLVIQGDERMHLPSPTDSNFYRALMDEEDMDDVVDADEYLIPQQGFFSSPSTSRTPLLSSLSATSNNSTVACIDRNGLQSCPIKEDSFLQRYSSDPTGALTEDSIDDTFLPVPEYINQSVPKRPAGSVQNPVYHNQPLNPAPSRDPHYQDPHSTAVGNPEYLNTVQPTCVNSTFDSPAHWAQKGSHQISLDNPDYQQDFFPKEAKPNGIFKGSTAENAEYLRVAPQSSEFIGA
In short: as §1

DC50 (EGFR-Del19/T790M/C797S) [nM] | DC50 (EGFR-L858R/T790M/C797S) [nM] | Dmax (EGFR-L858R/T790M/C797S) [%] | SMILES | Dmax (%) H1975 # 28 DTC (EGFR-Del19/T790M/C797S) [%]
0.6 | 1.4 | 88 | CCc1cc(Nc2ncc(Br)c(Nc3ccc4nc(C)c(F)cc4c3P(C)(C)=O)n2)c(OC)cc1N1CCC(N2CCN(C(=O)C3CN(c4ccc(F)c5c4n(C)c(=O)n5[C@H]4CCC(=O)NC4=O)C3)CC2)CC1 [Example 24, (S)-3-(4-(3-(4-(1-(4-((5-bromo-4-((5-(dimethylphosphoryl)-3-fluoro-2-methylquinolin-6-yl)amino)pyrimidin-2-yl)amino)-2-ethyl-5-methoxyphenyl)piperidin-4-yl)piperazine-1-carbonyl)azetidin-1-yl)-7-fluoro-3-methyl-2-oxo-2,3-dihydro-1H-benzo[d]imidazol-1-yl)piperidine-2,6-dione] | 87
0.6 | 0.9 | 80 | CCc1ncc2c(P(C)(C)=O)c(Nc3nc(Nc4cc(CC)c(N5CCC(N6CCN(C7CN(c8cccc9c8n(C)c(=O)n9C8CCC(=O)NC8=O)C7)CC6)CC5)cc4OC)ncc3Br)ccc2n1 (stereo not drawn) [Example 23, 3-(4-(3-(4-(1-(4-((5-bromo-4-((5-(dimethylphosphoryl)-2-ethylquinazolin-6-yl)amino)pyrimidin-2-yl)amino)-2-ethyl-5-methoxyphenyl)piperidin-4-yl)piperazin-1-yl)azetidin-1-yl)-3-methyl-2-oxo-2,3-dihydro-1H-benzo[d]imidazol-1-yl)piperidine-2,6-dione] | 74
0.6 | 0.9 | 83 | CCc1cc(Nc2ncc(Br)c(Nc3ccc4nc(C)c(F)cc4c3P(C)(C)=O)n2)c(OC)cc1N1CCC(N2CCN(C3CN(c4cccc5c4n(C)c(=O)n5C4CCC(=O)NC4=O)C3)CC2)CC1 (stereo not drawn) [Example 22, 3-(4-(3-(4-(1-(4-((5-bromo-4-((5-(dimethylphosphoryl)-3-fluoro-2-methylquinolin-6-yl)amino)pyrimidin-2-yl)amino)-2-ethyl-5-methoxyphenyl)piperidin-4-yl)piperazin-1-yl)azetidin-1-yl)-3-methyl-2-oxo-2,3-dihydro-1H-benzo[d]imidazol-1-yl)piperidine-2,6-dione] | 74
